# Source: the OPERA property sets (Mansouri et al. 2018)
# Peptide text beside a SMILES is read from it.
row,Compound,logP
1,COc1ccc(-c2nc3cnccc3o2)c(OC)c1,2.42
2,COCC(=O)N(c1c(C)cccc1C)C(C)C(=O)OC (stereo unspecified),1.65
3,CCOc1ccccc1O,1.68
4,NC(=O)OCc1ccccc1,1.2
5,CN(C)C(=O)C(C(=O)N(C)C)C(=O)N(C)C,-3.09
6,Cc1cc(CC(=O)O)ccc1OCc1ccccc1,3.37
7,O=c1[nH]cnc2nc[nH]c12,-1.11
8,CC(C)(CCC(=O)O)C(=O)O,0.67
9,c1cc2ccsc2cn1,1.74
10,Nc1nc(N)nc(N)n1,-1.37
11,CC(C)I,2.89
12,Clc1ccc(-c2cccc(Cl)c2Cl)cc1,5.42
13,OCc1cccs1,0.87
14,C=CCC1(CC)C(=O)NC(=O)NC1=O,0.95
15,CCC(=O)N(C)C,-0.11
16,Oc1ccc(Cn2cc[nH]c2=S)cc1F,1.12
17,Cc1cc(C)ncn1,0.62
18,CCCn1cnc2c(N)ncnc21,0.74
19,CN(C)c1ccc([N+](=O)[O-])cc1,2.27
20,Cc1ccccc1OC(=O)N(C)C,1.86
21,CC(C)COC(=O)c1cc(O)c(O)c(O)c1,2.46
22,C#CCCC(C)=O,0.58
23,NC(Cc1ccc([N+](=O)[O-])cc1)C(=O)O (stereo unspecified),-1.25
24,O=[N+]([O-])c1ccc(F)cc1,1.8

row,Compound,logP
1,Cc1cc(N)ccc1Br,2.53
2,Cn1c(N)nc2cc(C#N)ccc21,1.11
3,Cc1cccc(N)c1,1.4
4,CC1=CC(=O)C=C(C)C1=O,1.22
5,CN1CC(=O)NC1=N,-1.76
6,O=S(=O)(c1ccccc1)c1ccccc1,2.4
7,c1ccc2c(N3CCCCC3)ncnc2c1,2.92
8,CC(=O)C(=Cc1ccc(Br)cc1)C(C)=O,2.75
9,C[Si](C)(C)c1ccccc1,4.72
10,CC(=O)NC(Cc1ccc(O)cc1)C(N)=O (stereo unspecified),-0.87
11,Cc1cc2ccccc2cn1,2.68
12,CC(C)(N)Cc1ccccc1,1.9
13,O=C(O)Cc1cccc(F)c1,1.65
14,CC(C)N(C(=O)CCl)c1ccccc1,2.18
15,CC(=O)C(=Cc1ccc(Cl)cc1)C(C)=O,2.32
16,Nc1nc(N)nc(-c2ccccc2Br)n1,1.26
17,O=C1OC(=O)c2ccccc21,1.6
18,Nc1ncnc2[nH]cnc12,-0.09
19,CCC(C)N (stereo unspecified),0.74
20,NC(C(=O)O)c1cccs1 (stereo unspecified),-2.05
21,CCCCCCCCN(C)/N=N/c1ccc(C(N)=O)cc1,4.7
22,c1ccc(-c2cccnc2)nc1,1.46
23,CC(C)Oc1ccc(CC#N)cc1,2.53
24,O=[N+]([O-])c1ccc(CCO)cc1,1.12

row,Compound,logP
1,CC(=O)NC(CCC(=O)O)C(=O)NC(Cc1ccccc1)C(=O)NC(CC(C)C)C(N)=O (stereo not drawn) (Ac-Glu-Phe-Leu-NH2; configuration not given here),0.32
2,Brc1c(Br)c(Br)c(Br)c(Br)c1Br,6.07
3,ON=Cc1ccc(F)cc1,2.03
4,CC1=NS(=O)(=O)c2ccc(C(F)(F)F)cc2N1,1.59
5,CCOC(=O)c1ccncc1,1.43
6,Oc1c(Cl)cccc1Cl,2.75
7,Nc1ncnc2ncn(C(c3ccccc3)c3ccccc3)c12,3.19
8,CCOP(=S)(OCC)N1C(=O)c2ccccc2C1=O,3.48
9,CCOc1cccc(S(I)=C(N(C)C)N(C)C)c1 (stereo unspecified),-0.1
10,Nc1cccc(N)c1,-0.33
11,CCOc1ccccc1S(I)=C(N(C)C)N(C)C (stereo unspecified),-0.06
12,O=c1oc2ccccc2c(O)c1Cc1c(O)c2ccccc2oc1=O,2.07
13,C1COC1,-0.14
14,O=S(=O)(O)c1ccc2ccccc2c1,0.63
15,Cc1cccc(Cl)c1NC1=NCCN1,1.71
16,N=C(N)NCCCCc1ccccc1,1.59
17,CC12CCC3C(CCC4(O)CC(O)CCC34C=O)C1(O)CCC2C1=CC(=O)OC1 (stereo unspecified),0.64
18,CN(C)CCc1cccnc1,0.82
19,COC=O,0.03
20,O=C(O)COc1ccccc1F,1.39
21,O=[N+]([O-])Cc1ccccc1,1.75
22,Cc1ccc2cccnc2c1,2.47
23,C[C@]12CCC(=O)C=C1CC[C@@H]1[C@@H]2[C@@H](O)C[C@@]2(C)[C@H]1CC[C@]2(O)C(=O)CO,1.61
24,COc1cc(S(C)=O)ccc1-c1nc2cnncc2[nH]1 (stereo unspecified),0.39

row,Compound,logP
1,Nc1ccc(-c2ccc(N)c(Cl)c2)cc1Cl,3.51
2,COc1ccc2c(c1)nc(N)n2C,0.87
3,COC1=C(OC)C(=O)C(C)=C(C)C1=O,1.26
4,CCc1cccc(CC)c1N(COC)C(=O)CCl,3.52
5,Clc1ccc(-c2cc3ccccn3c2)cc1,5.2
6,COc1ccc(S(N)(=O)=O)cc1C(=O)NCC1CCCN1Cc1ccc(F)cc1 (stereo unspecified),2.46
7,CCCOc1ccc([N+](=O)[O-])c(S(C)(=O)=O)c1,1.1
8,Cc1cccc(C2CNCCO2)c1 (stereo unspecified),1.52
9,CCNc1nc(Cl)nc(NC(C)C)n1,2.61
10,NC(=O)NCc1ccccc1,0.73
11,OC(c1ccccc1)C1CCCCN1 (stereo unspecified),1.58
12,COc1cccc2cccnc12,1.84
13,ClC(Cl)(Cl)C(Cl)(Cl)Cl,4.14
14,CCN1CCN(C(=O)NC(C(=O)NC2C(=O)N3C(C(=O)O)=C(CSc4nnnn4C)CSC23)c2ccc(O)cc2)C(=O)C1=O (stereo unspecified),-0.74
15,Cc1nn(-c2ccccc2)c(C)c1N=O,2.28
16,Cc1cc2c(cc1S(N)(=O)=O)S(=O)(=O)NCN2,-0.22
17,O=C(NP(=O)(N1CC1)N1CC1)c1ccc(Cl)cc1,0.97
18,C=CCC(CC=C)(NC(C)=O)C(N)=O,0.05
19,COc1ccc(CCNCC(O)COc2cccc(C)c2)cc1OC (stereo unspecified),3
20,c1ccc2[nH]ncc2c1,1.77
21,CNC(=O)Oc1ccccc1OC(C)C,1.52
22,COC1CC(OC2CCC3(C)C(CCC4C3CC(O)C3(C)C(C5=CC(=O)OC5)CCC43O)C2)OC(C)C1OC1CC(O)C(OC2CC(O)C(OC)C(C)O2)C(C)O1 (stereo unspecified),2.14
23,O=C(Cn1c(=O)sc2ccc(Cl)cc21)N1CCNCC1,1.35
24,CC(C)c1nnc(S)n(N)c1=O,1.22

row,Compound,logP
1,CCOC(=O)[C@H](CCc1ccccc1)N[C@@H](C)C(=O)N1CCC[C@H]1C(=O)O,0.07
2,COc1ccncc1,1
3,O=Cc1ccc2c(c1)OCO2,1.05
4,CCCN(CCC)C1CCOc2c(O)cccc21 (stereo unspecified),3.3
5,Clc1cccc(Cl)n1,2.15
6,CCOC(=O)C(F)(F)C(F)(F)F,2.12
7,O=[N+]([O-])c1ccc(Cl)c(Cl)c1Cl,3.61
8,C=CCNCCC,1.33
9,CC(C)c1cccc(OCC(=O)O)c1,2.59
10,Nc1ccc(Sc2ccc(N)cc2)cc1,2.18
11,BrCCc1ccccc1,3.09
12,Cc1ccc(C(=O)NN)cc1,0.72
13,CCOC(=O)C=Cc1ccccc1,2.99
14,NC(CC(=O)O)c1ccccc1 (stereo unspecified),-1.4
15,CN(C)S(=O)(=O)c1ccc(N)cc1,0.67
16,Cc1ccccc1C(O)c1ccccc1 (stereo unspecified),3.06
17,Cc1ccc(C=NO)cc1,2.4
18,CC(C)C(=O)c1ccccc1,2.73
19,FC(F)(F)c1nc2cc(Cl)c(Cl)cc2[nH]1,3.49
20,CC(C)(C)NC[C@H](O)COc1nsnc1N1CCOCC1,1.83
21,O=[N+]([O-])c1ccc(OCC(O)CNCC(O)COc2ccccc2)cc1 (stereo unspecified),2.62
22,CC(CN(C)C)CN1c2ccccc2S(=O)(=O)c2ccccc21 (stereo unspecified),2.51
23,CCC(C)(C)Cl,2.52
24,CN1C(=O)CN=C(c2ccccc2)c2cc(C#N)ccc21,1.8

row,Compound,logP
1,CNC(=O)Oc1ccc(Cl)c(Cl)c1,2.8
2,NC(=O)Nc1cccc(F)c1,1.29
3,CC(=O)NC(=O)NC(C)=O,-0.68
4,O=C(Oc1ccc(N=C=S)cc1)c1ccccc1,4.9
5,CNC1=C(N2CC2)C(=O)C(NC)=C(N2CC2)C1=O,0.13
6,CCCCCCCCOC(N)=O,2.84
7,CCOc1cccc(OC(=O)NC)c1,1.75
8,CN(C)N=Nc1ccccc1,2.59
9,NC(Cc1c[nH]c2cccc(F)c12)C(=O)O (stereo unspecified),-1.07
10,O=C1CN=C(c2ccccc2F)c2ccccc2N1,2.38
11,NC(=O)Cn1ccnc1[N+](=O)[O-],-1.22
12,CON(C)C(=O)Nc1ccc(OCCCCOc2ccccc2)cc1,3.57
13,CN(N=O)C(=O)Nc1ccc(F)cc1,1.88
14,COC(=O)c1cccnc1,0.83
15,Fc1ccccc1Cn1cc[nH]c1=S,1.77
16,CCNC(=O)CBr,0.34
17,Cc1ccccc1OC(=O)c1ccc(N)cc1O,3.14
18,Nc1cccc2nc3ccccc3cc12,2.47
19,CC(=O)OCC1OC(n2ccnc2[N+](=O)[O-])C(OC(C)=O)C(OC(C)=O)C1OC(C)=O (stereo unspecified),0.52
20,Clc1ccc(-c2c(Cl)cccc2Cl)cc1,5.75
21,CC(=O)c1ccc(S(N)(=O)=O)cc1,0.2
22,CC(Oc1cc(Cl)c(Cl)cc1Cl)C(=O)O (stereo unspecified),3.8
23,CCCCCN(C)/N=N/c1ccc(C(N)=O)cc1,3.18
24,COc1ccccc1C(C)=O,1.82

row,Compound,logP
1,O=C1CC(=O)N(c2ccccc2)N1c1ccccc1,1.45
2,N#CC1CC1,0.68
3,CON(C)C(=O)Nc1ccc(N)cc1,-0.16
4,CC(=O)c1ccc(N)cc1,0.83
5,CN(C)c1ccnnc1,-0.09
6,CCc1ccc([N+](=O)[O-])cc1,3.03
7,NCc1cccnc1,-0.32
8,OCCCCCc1ccncc1,1.39
9,Oc1cccc2c(O)cccc12,1.94
10,CC1(c2ccccc2)NC(=O)NC1=O (stereo unspecified),1.02
11,CCn1c(=O)c2nc(-c3ccc(S(=O)(=O)NCCN(C)C)cc3)[nH]c2n(CC)c1=O,2.57
12,COC(=O)C(C)NC(C)=O (stereo unspecified),-0.57
13,CN(C)C(N(C)C)=S(I)c1ccc(C#N)cc1 (stereo unspecified),-1.13
14,COc1ccc(CCN)cc1OC,0.77
15,N#Cc1cccc2[nH]ccc12,2.46
16,CN[C@H]1CCc2cc(OC)c(OC)c(OC)c2-c2ccc(OC)c(=O)cc21,1.37
17,OCCN1CCN(CCC=C2c3ccccc3Sc3ccc(C(F)(F)F)cc32)CC1,4.51
18,N#Cc1ccccc1O,1.61
19,CC(C)CN,0.73
20,CC(C)CC(N)Cc1ccccc1 (stereo unspecified),3.29
21,CCOCC,0.89
22,Nc1ncccn1,-0.22
